From PubChem BioAssay (NCI) come the findings set out here.

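Each compound was tested at five concentrations against cells in 96-well plates for 48 hours. GI50 = concentration required for 50% inhibition of growth. TGI marks complete inhibition of growth.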

Common to all, as to experiment: NCI anticancer screen, dose series, 48 h
Experiment [1] concerns UO-31 renal.
Experiment [2] deals with HCT-116 colon.
In experiment [3] the test system is 786-0 renal.
Experiment [4] has as its system OVCAR-8 ovarian.
Experiment [5] relates to SK-MEL-28 melanoma.
The subject of experiment [6] is LOX IMVI melanoma.
Experiment [7] relates to COLO 205 colon.
The subject of experiment [8] is U251 CNS.
Experiment [9] concerns UACC-62 melanoma.

Consider `CCOC(=O)NC1CC2CCC1(OC)C=C2C` (stereo not given), for which the TGI in [1], in experiment [2], in experiment [3], in experiment [4], in experiment [5] and in experiment [6] was > 100 µM throughout. The TGI in experiment [7], in [8] and in experiment [9] was > 100 µM in each case.
`CC(CN)[C@@H]1CC[C@]2(CO)CC[C@]3(C)[C@H](CC[C@@H]4[C@@]5(C)CCC(N)C(C)(C)[C@@H]5CC[C@]43C)[C@@H]12` (stereo not given in full): the GI50 in [1] was 1.55 µM; in experiment [2], 1.68 µM; in experiment [3], 1.58 µM; in experiment [4], 1.92 µM; in experiment [5], 1.91 µM; in experiment [6] it was 1.66 µM. The GI50 in [7] was 1.91 µM; in [8] it was 1.91 µM; in [9] it was 1.92 µM. Besides, the TGI in experiment [1] was 3.04 µM; in experiment [2], 3.59 µM; in experiment [3] it was 3.38 µM; in experiment [4], 3.36 µM; in experiment [5] it was 3.62 µM; in [6], 3.33 µM. The TGI in experiment [7] was 3.68 µM; in [8] it was 3.31 µM; in experiment [9], 3.64 µM.
`CCCN1C(=O)CNC(=O)c2[nH]cnc21`: the TGI in experiment [1], in experiment [2], in experiment [3], in experiment [4], in [5] and in experiment [6] was > 100 µM in each case. Moreover, the TGI in experiment [7], in [8] and in experiment [9] was > 100 µM each time.
As to `O=C(O)[C@@H](NS(=O)(=O)c1ccc([N+](=O)[O-])cc1)c1ccccc1`, the TGI in experiment [1], in experiment [3], in experiment [4], in experiment [5], in experiment [6] and in experiment [7] was > 100 µM in each case. In addition, the TGI in experiment [8] and in [9] was > 100 µM each time.
On to `C=C[C@H]1C=Cc2c(OC)cccc2[C@@H]1COP1(=S)NC(C)C(c2ccccc2)O1` (stereo not given in full), for which the TGI in experiment [2], in experiment [3], in [4], in experiment [5], in experiment [6] and in [7] was > 100 µM throughout. In addition, the TGI in experiment [8] and in experiment [9] was > 100 µM each time.
Take `O=C(C=Nc1ccccc1C(=O)[O-])c1cccs1.O=C(C=Nc1ccccc1C(=O)[O-])c1cccs1.[Zn+2]`: the TGI in [1] is > 100 µM; in experiment [2] it was > 100 µM; in [3], > 100 µM; in [4], > 100 µM; in experiment [5] it was > 100 µM; in [6], 71.5 µM. Moreover, the TGI in experiment [7] is > 100 µM; in [8] it was 35.5 µM; in experiment [9] it was 42 µM.
Regarding `CC(C)c1cccc(C(C)C)c1NC(=O)CCC(=O)NN`, the TGI in experiment [1] was > 100 µM; in experiment [2] it was > 100 µM; in experiment [3], > 100 µM; in experiment [4] it was > 100 µM; in experiment [5] it was > 100 µM; in [7], 36.1 µM. Further, the TGI in experiment [8] and in experiment [9] was > 100 µM in each case.
For `Nc1nc(=Nc2ccccc2)ss1`, the TGI in [1], in experiment [2], in experiment [3], in experiment [4], in experiment [5] and in experiment [6] was > 100 µM throughout. The TGI in experiment [7], in [8] and in experiment [9] was > 100 µM in each case.
Turning to `CCOCCOC[C@H]1CCCN(c2ccnc3sc(C(N)=O)c(N)c23)C1`, the GI50 in experiment [1] is 15.3 µM; in experiment [2], 14.4 µM; in experiment [3], > 100 µM; in [4], 25.1 µM; in experiment [5] it was 23.5 µM; in experiment [6] it was 29.3 µM. For the same compound, the GI50 in [7] is 59.7 µM; in experiment [8], > 100 µM; in experiment [9], 6.51 µM. Further, the TGI in experiment [1], in experiment [2], in experiment [3], in experiment [4], in experiment [5] and in [6] was > 100 µM throughout. For the same compound, the TGI in experiment [7], in experiment [8] and in [9] was > 100 µM in each case.
With `FC(F)(F)c1cccc(C2SCc3nc4ccccc4n32)c1` (stereo not given), the TGI in [1], in experiment [2], in experiment [3], in experiment [4], in experiment [5] and in [7] was > 100 µM each time. Also, the TGI in [8] and in experiment [9] was > 100 µM throughout.
`O=C(Cc1ccccc1)NS(=O)(=O)c1ccccc1`: the TGI in experiment [1], in experiment [2], in experiment [3], in [4], in experiment [5] and in [6] was > 100 µM throughout. For the same compound, the TGI in experiment [7], in experiment [8] and in [9] was > 100 µM each time.
For the compound `CCOC(=O)c1cc(OC(=O)CC)c2c(OC)ccc(OC)c2c1`, the TGI in experiment [1], in experiment [2], in experiment [3], in [5], in experiment [7] and in experiment [8] was > 100 µM in each case. Also, the TGI in [9] is > 100 µM.
On to `COc1ccccc1NC(=O)C(CC(C(=O)Nc1ccccc1OC)/C(C)=N/NC(=O)c1ccccc1O)/C(C)=N/NC(=O)c1ccccc1O` (stereo not given), for which the TGI in [1], in [3], in experiment [4], in experiment [5], in experiment [6] and in experiment [7] was > 100 µM each time. In addition, the TGI in [8] is > 100 µM.
Consider `FC(F)(F)c1nc(-c2ccccc2)oc1Sc1oc(-c2ccccc2)nc1C(F)(F)F`, for which the TGI in experiment [1], in experiment [2], in [3], in experiment [4], in [6] and in experiment [7] was > 100 µM in each case. Moreover, the TGI in experiment [8] and in experiment [9] was > 100 µM each time.
